Data from patent US20230277125A1, “BREATH-BASED THERAPEUTIC DRUG MONITORING METHOD” (UNIVERSITÄTS-KINDERSPITAL BEIDER BASEL, priority 2020, published 2023).

Assays:
[1] = human subject; cited from earlier work
[2] = human, in vivo
Text: It will be further noted that according to the methods of the present invention it is possible to measure the level of metabolites that belong to different metabolic pathways. Therefore, by measuring the level of said metabolites and comparing them with each other, it is also possible to compare the activities of said different metabolic pathways. […] FIG. 3 presents the time dependence of the relative activity of two oxidation pathways of valproate, β-oxidation that leads to 3-heptanone, and ω1-oxidation that results in 2-propyl-4-pentanolactone. The activities of both oxidation pathways are presented herein as a ratio between the nAUC parameters for m/z peaks due to compounds belonging to each of the pathways, and presented in a logarithmic scale. Both increase of in 2-propyl-4-pentanolactone to 3-heptanone ratio, as well as decrease thereof can be observed over time, and observed ratios span more than 100-fold range. Herein, values of nAUC parameters for the m/z peaks due to both 3-heptanone and 2-propyl-4-pentanolactone (accordingly, peaks at m/z of 115.11176 and 143.10659 in FIG. 14) are predictors for the previously trained mathematical model of the present invention.
FIG. 3 presents the time dependence of the relative activity of two oxidation pathways of valproate, β-oxidation that leads to 3-heptanone, and […] that results in 2-propyl-4-pentanolactone. […]

[3] = Blood-based therapeutic drug monitoring of serum valproate (immunoassay total, GC-MS free); type: in vivo, human
Text: FIG. 2 presents an analysis pipeline that includes constructing a response vector matrix, splitting the dataset into training and test set, applying feature reduction analysis to […] in order to identify predictors, training mathematical model based on selected predictors, applying selected predictors and mathematical model to the test set to determine the concentration of valproate in a subject, which matches well the serum concentration determined using the blood analysis, as determined in an immunoassay (total valproate concentration) and by GC-MS (free valproate concentration).
The range of pharmacotherapies is described in AED rows. The patients were receiving either a single drug or combinations of up to three drugs. The bottom three rows identify the clinical outcome as described by side effects (mild or severe), drug response (responder or non-responder), and EEG (normal or abnormal). The grey bars on the top show the concentrations (mg/L) of free and total serum VPA (level 0 was assigned to all the measurements of subjects' not taking VPA, missing bars in free VPA represents the unavailability of data). Dark (light) grey bars indicate that the measurements were outside (inside) the therapeutic range (i.e. 50-100 mg/L for total and 5-10 mg/L for free VPA). Thus, for example, patient 20 suffers from DEE. During the first visit (i.e. 20-1), the patient was receiving a combination of LTG, LEV, and VPA. Total serum VPA concentration was 104 mg/L (i.e. beyond the therapeutic range) and free serum VPA could not be measured. At this point in time, the patient had only mild side effects, but was not responding to the medication, and EEG was abnormal. On the second visit, the patient was unable to perform breath test. During the third visit (i.e. 20-3), LEV had been removed, total serum VPA concentration was 108 mg/L and free serum VPA concentration was 12.7 mg/L (both levels above the therapeutic range). Side effects were still mild, EEG was back to normal, but the patient was still not responding to the pharmacotherapy. AED=antiepileptic drugs, EEG=electroencephalography, VPA=valproic acid, LTG=lamotrigine, and LEV=levetiracetam.
59 subjects (32 males and 27 females) between the ages of 4 and 20 (see FIG. 12A for details), undergoing treatment with antiepileptic drugs (AEDs) with the necessity of therapeutic drug monitoring (TDM) were enrolled in the study Immediately after blood drawn for TDM, subjects performed prolonged exhalations directly into SESI-HRMS system, comprising SUPER-SESI ionization device (Fossil Ion Technology, Spain) coupled to a Q Exactive Plus HRMS (Thermo Fisher Scientific, Germany). During the course of study, wherever blood-based TDM were performed, subjects also provided exhalations, leading to multiple measurements from some subjects. In total 75 successful measurements (from 48 subjects) were performed. […] In order to determine the feasibility of TDM of an example drug valproate by using mass spectroscopy of samples of breath exhaled by subjects, the subjects were divided into two groups i.e. valproate users and non-valproate users. […] Moreover, a different relationship between total valproate serum concentration and valproate dose for subjects with mono and multi-therapy compared to that known in the literature (Duran, 1993) was observed (FIG. 12D).

[4] = patient 20, third visit (20-3), LEV removed

Structure (SMILES): CCCC(CCC)C(=O)O [VPA, Valproic acid]
- fraction directly excreted in urine without chemical modification [1]: Less than three percent
- fraction modified with coenzyme A and shuttled to mitochondria (β-oxidation, 3-oxovalproate) [1]: 12%
- fraction oxidised at position 4 (4-hydroxyvalproate) [1]: 2.7%
- fraction oxidised at position 5 (5-hydroxyvalproate) [1]: 2.3%
- fraction undergoing direct glucuronidation [1]: 80%
- span of observed 2-propyl-4-pentanolactone to 3-heptanone ratios [2]: more than 100 fold
- total valproate for a given dose, multi-therapy vs mono-therapy ([3]; FIG. 12D): lower than those of mono-therapy
- relationship between participants' age and serum free valproate fraction ([3]; ages 4 to 20, FIG. 12C): inversely proportional relationship
- total serum VPA concentration ([3]; patient 20, first visit (20-1), combination of LTG, LEV and VPA): 104 mg/L
- free serum VPA concentration [3, 4]: 12.7 mg/L
- total serum VPA concentration [3, 4]: 108 mg/L
- relationship between serum concentrations of free and total valproate ([3]; study participants, FIG. 12B): non-linear relationship
